Where no end group is shown, it is not given here. Bounds are passed on as bounds.

One series deals with L. monocytogenes. The series is described as follows: MIC, L. monocytogenes. The settings on record: L. monocytogenes (KCTC 3710), 18 hours at 37° C. The format is cell-based, Listeria monocytogenes. The text has this: To compare the antimicrobial activity among the peptides produced by the method of Example 1, the inventors of the present invention measured the minimal growth inhibitory concentration (MIC), which is minimum concentration of the peptide showing no dissociation of bacterial cells.
Specifically, the bacterial strain described in the following Table 2 was purchased and cultured to a mid-log phase in each medium with a composition suitable for each strain. Then, after dilution to bacterial cell concentration of 2×10^4 cells/100 μl, the cells were inoculated to a microtiter plate (NUNC, USA). Thereafter, Hp1404-T1, Hp1404-T1a, Hp1404-T1b, Hp1404-T1c, Hp1404-T1d or Hp1404-T1e peptide which has been synthesized in Example 1 above was subjected to serial dilution, ½ times for each, with BSA (bovine serum albumin) solution in a 96-well plate. After adding the cells to a plate, the cells were cultured for 18 hours at 37° C. By using a microtiter plate reader (Merck Elisa reader, Germany), the absorbance was measured at a wavelength of 600 nm to determine the MIC value of each bacterial strain. As a control group, Hp1404 as a mother peptide was used.

The subject of the next series is S. aureus (ATCC 25923). The series is described as follows: Anti-biofilm activity (crystal violet). The format is cell-based, Staphylococcus aureus. The settings on record: 24 hours at 37° C. The protocol: To compare the antimicrobial activity among the peptides produced by the method of Example 1, the inventors of the present invention measured the biofilm inhibitory concentration value of the peptide showing no dissociation of bacterial cells.
Specifically, among the bacterial strains described in the above Table 2, bacteria showing favorable biofilm forming were cultured to a mid-log phase in each medium. Then, after dilution to bacterial cell concentration of 5×10^4 cells/100 μl, the cells were inoculated to a microtiter plate (PSL). Thereafter, Hp1404, Hp1404-T1c, Hp1404-T1d or Hp1s404-T1e peptide which has been synthesized in Example 1 above was diluted, 1/10 times for each, with 10 mM sodium phosphate (pH 7.2) solution in a 96-well plate. After adding the cells (10 μl) to a plate, the cells were cultured for 24 hours at 37° C. After removing the supernatant completely, the cells were fixed with 100% methanol for 15 minutes and reacted for 1 hour with Crystal violet staining solution followed by rinsing for 3 times. Then, after dissolving in 95% ethanol, the absorbance was measured at a wavelength of 595 nm by using a microtiter plate reader to determine the biofilm minimal inhibitory concentration value of each bacterial strain.

Series [1] is described as follows: Stability against trypsin enzyme (RP-HPLC). The note with it: 20 nM trypsin, 37° C., read-out: amount of remaining peptide; for remaining at 1 h, 200 μg/mL: reaction for 1 hour; for remaining at 2 h, 200 μg/mL: reaction for 2 hours. In kind it is in vitro ADME. The method, then:
To determine whether or not the peptides prepared by the method of Example 1 have stability against an enzyme, RP-HPLC (reverse-phase HPLC) was carried out. Specifically, 20 μg of the peptide was reacted with 100 μl of trypsin at concentration of 20 nM for 1 to 2 hours at 37° C. After the reaction, 20 μl of the reaction product was applied to RP-HPLC, and the amount of remaining peptide was examined.

The subject of series [2] is outer membrane of P. aeruginosa. The series is described as follows: Outer membrane effect (NPN fluorescence). The settings on record: peptide at 1×, 2× or 4×MIC. In kind it is cell-based. The method, then: By using the peptides prepared by the method of Example 1, effect of the peptide on the outer membrane and inner membrane of bacteria was examined. […] However, once the hydrophobic part is exposed as a result of damage occurring in cell wall, NPN emits fluorescence. After culturing each strain in TSB and NB medium, the strain was adjusted such that it has OD600 value of 0.2 in 5 mM HEPES buffer solution. After allowing the reaction to occur between 10 μM NPN dissolved in 95% ethanol and the bacteria by adding them in a 96-well black plate, the peptide at a concentration of 1×, 2× or 4×MIC and 0.1% Triton X-100 were further added, and then the fluorescence was measured.

Another series relates to plasmid DNA (pRSETB). The series is described as follows: Binding between antimicrobial peptide and DNA (gel electrophoresis). The settings on record: peptide/DNA ratio 0.25:1 to 4:1, 10 minutes at 37° C. The protocol:
To figure out the working mechanism of the synthetic peptides of the present invention for showing the antimicrobial activity, electrophoresis was carried out to examine the possible binding of synthetic peptides, i.e., Hp1404, […], Hp1404-T1d and Hp1404-T1e, to DNA as an internal material of bacteria.
Specifically, after reacting the plasmid DNA (pRSETB, 260 ng) with the peptide at different ratio (i.e., peptide/DNA ratio is as follows for lane number 1 to lane number 8: DNA only, 0.25:1, 0.5:1, 1:1, 1.5:1, 2:1, 3:1, and 4:1. respectively) for 10 minutes at 37° C., they were subjected to electrophoresis using 1% agarose gel followed by ethidium bromide (EtBr) staining and UV visualization.

Series [3] has as its system Pseudomonas aeruginosa strain 1034. Briefly: In vivo antimicrobial activity, infected skin wound. The arrangement: species or system BALB/c mouse; number of colonies from skin tissues: reference not given here. The note with it: intracutaneous. The method, then:
By using Hp1404-T1e found to have the most excellent antimicrobial activity among the peptides that are prepared by the method of Example 1, in vivo antimicrobial activity was measured. Specifically, among the Pseudomonas aeruginosa strains, strain 1034 was selected and tested. The strain was prepared by washing 3 times with PBS buffer. Ciprofloxacin antibiotic was used as a control group. A BALB/c mouse (6 week old) was shaved clean and a wound with pre-determined size was created thereon. Then, the wound site was injected intracutaneously with Pseudomonas aeruginosa strain 1034 ([…], 2×10^5 CFU/ml). After the bacterial infection, the peptide and antibiotic, each prepared at a concentration of 0.1 mg/ml and 0.2 mg/ml, respectively, were intracutaneously injected, and the observation was made everyday. On each day, the skin tissues were sampled and smeared on an NB solid medium. The smeared medium was incubated in an incubator for 18 hours, and the number of grown colonies was counted and expressed in %.

GILGKLWEGVKSIF-NH2 [Hp1404]: in the series with L. monocytogenes, the Minimal inhibitory concentration came to 3.13 µM. The “Biofilm minimal inhibitory concentration” value in the series on S. aureus (ATCC 25923) was 3.13 µM. In series [1], the share remaining at 1 h, 200 μg/mL stood at 60% and the share remaining at 2 h, 200 μg/mL is 45%. The “NPN fluorescence (effect on outer membrane)” value in series [2] was “increases in treatment concentration-dependent manner”. In addition, in the series on plasmid DNA (pRSETB), the “binding to DNA” value is “did not bind to any DNA”.

For ILKKLLKKVKKI-NH2 [Hp1404-T1e], the Minimal inhibitory concentration in the series with L. monocytogenes is above 25 µM. For the same substance, the “Biofilm minimal inhibitory concentration” value in the series on S. aureus (ATCC 25923) was found to be 12.5 µM. Further, in series [1], the share remaining at 1 h, 200 μg/mL was at least 80% and the share remaining at 2 h, 200 μg/mL was determined as 80%. Further, in the series with plasmid DNA (pRSETB), the “binding to DNA” value is “bind to DNA”. Besides, the wound healing result in series [3] (0.1 mg/ml and 0.2 mg/ml, observed everyday) is recorded as “wound healing effect in peptide concentration-dependent manner”. Further, the “number of colonies from skin tissues” value in series [3] (Day 5, 0.1 mg/ml treatment condition) was 40%. For the same substance, the “number of colonies from skin tissues” value in series [3] (Day 5, 0.2 mg/ml treatment condition) is on record as 20%.

Take ILKKLLKKVKSI-NH2 [Hp1404-T1d]: the Minimal inhibitory concentration with L. monocytogenes is above 25 µM. Besides, in the series with S. aureus (ATCC 25923), the “Biofilm minimal inhibitory concentration” value was 6.25 µM. Moreover, in series [1], the amount remaining at 1 h, 200 μg/mL was at least 80% and the share remaining at 2 h, 200 μg/mL is 80%. In the series on plasmid DNA (pRSETB), the “binding to DNA” value was “bind to DNA”.
